Measurements reported in the supplement of paper PMC13380429.

Experiments:
Conditions in all cases: 72 h
Caco-2 [1] = test: cell viability relative to DMSO; higher = less toxic
Calu-3 [2] = test: as above
HepG2 [3] = test: as above
U2OS [4] = test: as above
Vero E6 [5] = test: as above
Caco-2 [6] = test: relative viability EC50 (midpoint between 100% and the lowest measured viability); higher = less toxic
Calu-3 [7] = test: as above
HepG2 [8] = test: as above
U2OS [9] = test: as above
Vero E6 [10] = test: as above
Caco-2 [11] = test: drug sensitivity score (DSS) for viability; higher = more toxic; extreme values may be limits of the assay
Calu-3 [12] = test: as above
HepG2 [13] = test: as above
U2OS [14] = test: as above
Vero E6 [15] = test: as above

SMILES | cell viability (Caco-2 [1]; 1 nM) [%] | cell viability (Caco-2 [1]; 10 nM) [%] | cell viability (Caco-2 [1]; 100 nM) [%] | cell viability (Caco-2 [1]; 1000 nM) [%] | cell viability (Caco-2 [1]; 10000 nM) [%] | cell viability (Calu-3 [2]; 1 nM) [%] | cell viability (Calu-3 [2]; 10 nM) [%] | cell viability (Calu-3 [2]; 100 nM) [%] | cell viability (Calu-3 [2]; 1000 nM) [%] | cell viability (Calu-3 [2]; 10000 nM) [%] | cell viability (HepG2 [3]; 1 nM) [%] | cell viability (HepG2 [3]; 10 nM) [%] | cell viability (HepG2 [3]; 100 nM) [%] | cell viability (HepG2 [3]; 1000 nM) [%] | cell viability (HepG2 [3]; 10000 nM) [%] | cell viability (U2OS [4]; 1 nM) [%] | cell viability (U2OS [4]; 10 nM) [%] | cell viability (U2OS [4]; 100 nM) [%] | cell viability (U2OS [4]; 1000 nM) [%] | cell viability (U2OS [4]; 10000 nM) [%] | cell viability (Vero E6 [5]; 1 nM) [%] | cell viability (Vero E6 [5]; 10 nM) [%] | cell viability (Vero E6 [5]; 100 nM) [%] | cell viability (Vero E6 [5]; 1000 nM) [%] | cell viability (Vero E6 [5]; 10000 nM) [%] | relative viability EC50 (Caco-2 [6]) [µM] | relative viability EC50 (Calu-3 [7]) [µM] | relative viability EC50 (HepG2 [8]) [µM] | relative viability EC50 (U2OS [9]) [µM] | relative viability EC50 (Vero E6 [10]) [µM] | drug sensitivity score (Caco-2 [11]) | drug sensitivity score (Calu-3 [12]) | drug sensitivity score (HepG2 [13]) | drug sensitivity score (U2OS [14]) | drug sensitivity score (Vero E6 [15])
CCCN(CCC)C(=O)C(CCC(=O)OCCCN1CCN(CCOC(=O)Cc2c(C)n(C(=O)c3ccc(Cl)cc3)c3ccc(OC)cc23)CC1)NC(=O)c1ccccc1 (stereo not given) [proglumetacin] | 104 | 96.5 | 99.1 | 112 | 108 | 95.5 | 96.2 | 99 | 110 | 96.6 | 91 | 114 | 112 | 85.3 | 93.9 | 95.9 | 106 | 101 | 104 | 94 | 115 | 97.2 | 98 | 91.5 | 102 | > 10 | > 10 | > 10 | > 10 | > 10 | 0 | 0 | 1.1 | 0 | 0
Cc1ccc2c(-c3ccccc3)nc(=O)n(C(C)C)c2c1 [proquazone] | 86.9 | 89.3 | 81.4 | 103 | 99.8 | 92.9 | 94.9 | 104 | 105 | 117 | 96.7 | 109 | 102 | 102 | 110 | 99.7 | 94.5 | 96.2 | 92.4 | 105 | 93.4 | 92.4 | 89.3 | 105 | 103 | > 10 | > 10 | > 10 | > 10 | > 10 | 0 | 0 | 0 | 0 | 0
CCOC(=O)[C@H](CCc1ccccc1)N[C@@H](C)C(=O)N1Cc2ccccc2C[C@H]1C(=O)O [quinapril] | 95.7 | 99.6 | 92.1 | 96.3 | 88.5 | 95.2 | 102 | 103 | 97 | 96.5 | 106 | 98.9 | 110 | 93.6 | 94.7 | 98.1 | 100 | 95.1 | 101 | 93.9 | 104 | 97.9 | 102 | 90.4 | 97.8 | > 10 | > 10 | > 10 | > 10 | > 10 | 0 | 0 | 0 | 0 | 0
CCCN1CCC[C@@H]2Cc3n[nH]cc3C[C@H]21 [quinpirol-(-)] | 102 | 93.7 | 99.8 | 99.1 | 106 | 98.2 | 95.9 | 98.5 | 93.1 | 95.9 | 93.6 | 102 | 103 | 99.3 | 97.2 | 92.5 | 98.7 | 94.9 | 101 | 102 | 96.8 | 93.1 | 97.6 | 93.6 | 107 | > 10 | > 10 | > 10 | > 10 | > 10 | 0 | 0 | 0 | 0 | 0
CC(C)(C)c1cc(NC(=O)Nc2ccc(-c3cn4c(n3)sc3cc(OCCN5CCOCC5)ccc34)cc2)no1 [quizartinib] | 103 | 105 | 103 | 90.9 | 86.5 | 104 | 97.3 | 96.6 | 93.4 | 96.1 | 85.7 | 97.5 | 90.9 | 89 | 93.3 | 101 | 97.4 | 103 | 93.6 | 103 | 99.1 | 100 | 98.8 | 104 | 99.8 | > 10 | > 10 | > 10 | > 10 | > 10 | 0.6 | 0 | 0 | 0 | 0
CCN1CCC[C@H]1CNC(=O)c1c(OC)ccc(Br)c1OC [remoxipride] | 99.9 | 104 | 88.7 | 99.1 | 92.7 | 96.3 | 113 | 99.7 | 94.3 | 79.9 | 111 | 92 | 101 | 96.5 | 94.1 | 101 | 103 | 98 | 105 | 95.7 | 96.2 | 100 | 94.3 | 91.4 | 91.7 | > 10 | > 10 | > 10 | > 10 | > 10 | 0 | 1.3 | 0 | 0 | 0
O=C(Nc1ccccc1)c1ccccc1O [salicylanilide] | 80 | 101 | 112 | 102 | 90.6 | 107 | 100 | 102 | 90.9 | 111 | 102 | 96.6 | 94.4 | 94.6 | 75.6 | 95.9 | 96.9 | 97.1 | 93.8 | 97.5 | 95.9 | 98.4 | 98.4 | 100 | 99.9 | > 10 | > 10 | > 10 | > 10 | > 10 | 0 | 0 | 1.6 | 0 | 0
CC(C)[C@H](O)C(=O)N[C@@H](C)C(=O)N[C@@H]1C(=O)N(C)CCc2ccccc21 [semagacestat] | 96.2 | 107 | 98.2 | 102 | 92.6 | 95.8 | 94.8 | 94.7 | 99.8 | 98.1 | 99.7 | 105 | 114 | 96.3 | 92.1 | 99.9 | 100 | 94 | 96.8 | 92.3 | 102 | 101 | 99.9 | 100 | 99.4 | > 10 | > 10 | > 10 | > 10 | > 10 | 0 | 0 | 0 | 0 | 0
Cc1c(S(=O)(=O)O)oc2c1C(=O)C(=O)c1c-2ccc2c1CCCC2(C)C [sodium-tanshinone-II-A-sulfonate] | 97.7 | 96.3 | 109 | 93.2 | 102 | 90.2 | 100 | 101 | 99.1 | 98.6 | 106 | 92.2 | 116 | 95.9 | 107 | 96.4 | 99.7 | 91.1 | 99.6 | 94.6 | 103 | 100 | 97.5 | 84.5 | 94.1 | > 10 | > 10 | > 10 | > 10 | > 10 | 0 | 0 | 0 | 0 | 1.8
CCCCC(CC)CCC(CC(C)C)OS(=O)(=O)O (stereo not given) [sodium-tetradecyl-sulfate] | 100 | 83 | 95.5 | 87.6 | 104 | 98.8 | 91.9 | 103 | 102 | 97.5 | 93.1 | 96.5 | 112 | 86.2 | 98.6 | 103 | 96 | 98.3 | 104 | 99.5 | 101 | 96.1 | 99.7 | 91 | 101 | > 10 | > 10 | > 10 | > 10 | > 10 | 0 | 0 | 0 | 0 | 0
CC(C)(N)CC12CC3CC(CC(C3)C1)C2 [somantadine] | 100 | 95.9 | 104 | 96.2 | 93.4 | 100 | 99.8 | 99.1 | 94.3 | 96.8 | 100 | 101 | 95.5 | 84.8 | 87.4 | 100 | 95.5 | 99.5 | 91.7 | 92.4 | 97.1 | 98.3 | 100 | 100 | 96.1 | > 10 | > 10 | > 10 | > 10 | > 10 | 0 | 0 | 1.9 | 0 | 0
